The text below walks through data of US5166204A, “Isoindole derivatives and salts thereof and antitumor agent comprising the same” (Toyama Chemical Co., Ltd., priority 1989, dated 1992).

Each structure is given as a SMILES string. Values after ≈ are worked out from the molar mass of the structure shown.

Assay [1] relates to HeLa S-3 cells. Kind of assay: HeLa S-3 cell growth inhibition test. It counts as cell-based. Conditions: Homo sapiens, 96 h; HeLa S-3 cells, 37° C., 4 days, Giemsa's staining; read-out: minimum growth inhibition concentration (MIC). How it is done: (a) HeLa S-3 Cell Growth Inhibition Test
A test compound was appropriately diluted with a liquid medium (a minimum essential medium containing a 10% fecal calf serum). The resulting liquid was poured into each well of a 96-well micro titer plate, in an amount of 0.1 ml/well. Then, HeLa S-3 cells were diluted with the same liquid medium so that the cell concentration became 2×10^4 cells/ml, and the resulting liquid was poured into each well of the above plate in an amount of 0.1 ml/well. The resulting plate was allowed to stand in a CO2 gas incubator of 37° C. for 4 days, to effect incubation. After the incubation, the supernatant liquid in each well was removed and fixation by ethanol was effected for 10 minutes. The fixed cells were tinted with a Giemsa's staining solution to determine the minimum growth inhibition concentration (MIC) of test compound for HeLa S-3 cells.

Assay [2] concerns L-1210 ascites tumor. Kind of assay: Effect on L-1210 ascites tumor (survival of tumor-transplanted mice). The assay is classed as in vivo, CDF1 strain mice. Conditions: Mus musculus, L1210, ip, 720 h, twice on day 1 and day 5, survival observed 30 days, read-out: prolongation of survival time T/C; for response vs control in vivo at 1 mg/kg: 1 mg/kg i.p. How it is done: (b) Effect on L-1210 Ascites Tumor
1×10^5 L-1210 cells were intraperitoneally transplanted to CDF1 strain mice in groups of 6 members (male, 5-week old, weight =about 25 g) on day 0. A test compound dissolved in an aqueous 5% glucose solution was intraperitoneally administered to the test group of the above mice twice on day 1 and day 5. Only the aqueous 5% glucose solution was administered to the control group. Incidentally, the 25 mg/kg administration of the test compound No. 30 was effected only once on day 1. There were examined (a) the average survival days of the test group and (b) the average survival days of the control group. The examination period for survival days was 30 days. From the (a) and (b) was calculated a prolongation of survival time [T/C (%)], using the following equation: […]

Assay [3] relates to Ehrlich solid cancer. Kind of assay: Effect on Ehrlich solid cancer (tumor weight in mice). It counts as in vivo, ddY strain mice. Conditions: Mus musculus, iv, 240 h. Here is the method: (c) Effect on Ehrlich Solid Cancer 5×10^6 Ehrlich cells were transplanted to ddY strain mice in groups of 7 members (male, 5-week old, weight=about 25 g) subcutaneously at the left groin on day 0. […] Only the aqueous 5% glucose solution was administered to the control group. […] From the (a) and (b) was calculated T/C (%), using the following equation: T/C (%)=(a/b)×100

With `CN(C)CCN1C(=O)c2ccc3[nH]c4ccccc4c3c2C1=O` [compound 1], the MIC in assay [1] is 3.13 mg/L (≈ 10.2 µM). In addition, the response vs control in vivo at 25 mg/kg in assay [2] (25 mg/kg i.p.) was 137%. For the same compound, the response vs control in vivo at 50 mg/kg in assay [3] (50 mg/kg i.v., daily for six consecutive days (day 1 to 6), day 10, read-out: T/C (average tumor weight, treated/control)) was 18%.
With `CN(C)CCN1C(=O)c2ccc3[nH]c4ccc(O)cc4c3c2C1=O.Cl` [compound 23, N-(2-dimethylaminoethyl)-6-hydroxycarbazole-3,4-dicarboximide hydrochloride], the MIC in assay [1] came out at 0.8 mg/L. For the same compound, the response vs control in vivo at 1 mg/kg in assay [2] is 128%. Further, the response vs control in vivo at 5 mg/kg in assay [2] (5 mg/kg i.p.) was more than 272%. Also, the response vs control in vivo at 15 mg/kg in assay [3] (15 mg/kg i.v., twice on day 1 and day 5, day 10, read-out: T/C (average tumor weight, treated/control)) was 10%.
Take `Cc1cc2c(c3c1[nH]c1ccc(O)cc13)C(=O)N(CCN(C)C)C2=O.Cl` [compound 24, N-(2-dimethylaminoethyl)-6-hydroxy-1-methylcarbazole-3,4-dicarboximide hydrochloride]: in assay [1], the MIC amounted to 0.125 mg/L. Also, the response vs control in vivo at 1 mg/kg in assay [2] is more than 377%. Besides, the response vs control in vivo at 5 mg/kg in assay [3] (5 mg/kg i.v., twice on day 1 and day 5, day 10, read-out: T/C (average tumor weight, treated/control)) was found to be 12%.
